Experimental data published in patent US10703741B2, “Covalent inhibitors of PAD4” (Padlock Therapeutics, Inc., priority 2016, dated 2020).
Like-named read-outs stand apart in the source and are kept apart here.

Tests used:
hPAD4 enzyme = hPAD4 enzyme (Homo sapiens (Human), UniProt Q9UM07); test: PAD4 RapidFire Mass Spectrometry (RFMS) activity assay, hPAD4; assay type: biochemical
mPAD4 = mPAD4 (Mus musculus (Mouse), UniProt Q9Z183); test: PAD4 RapidFire Mass Spectrometry (RFMS) activity assay, mPAD4; assay type: biochemical
[1] = 100 nM hPAD4, 50 μM substrate peptide, 1 mM CaCl2, 65 mins at 37° C., read-out: hPAD4 RFMS IC50
[2] = pIC50=−log(IC50), read-out: hPAD4 RFMS pIC50 (converted)
[3] = pIC50=−log(IC50), read-out: mPAD4 RFMS pIC50 (converted)

mPAD4, sequence (Q9Z183 whole entry): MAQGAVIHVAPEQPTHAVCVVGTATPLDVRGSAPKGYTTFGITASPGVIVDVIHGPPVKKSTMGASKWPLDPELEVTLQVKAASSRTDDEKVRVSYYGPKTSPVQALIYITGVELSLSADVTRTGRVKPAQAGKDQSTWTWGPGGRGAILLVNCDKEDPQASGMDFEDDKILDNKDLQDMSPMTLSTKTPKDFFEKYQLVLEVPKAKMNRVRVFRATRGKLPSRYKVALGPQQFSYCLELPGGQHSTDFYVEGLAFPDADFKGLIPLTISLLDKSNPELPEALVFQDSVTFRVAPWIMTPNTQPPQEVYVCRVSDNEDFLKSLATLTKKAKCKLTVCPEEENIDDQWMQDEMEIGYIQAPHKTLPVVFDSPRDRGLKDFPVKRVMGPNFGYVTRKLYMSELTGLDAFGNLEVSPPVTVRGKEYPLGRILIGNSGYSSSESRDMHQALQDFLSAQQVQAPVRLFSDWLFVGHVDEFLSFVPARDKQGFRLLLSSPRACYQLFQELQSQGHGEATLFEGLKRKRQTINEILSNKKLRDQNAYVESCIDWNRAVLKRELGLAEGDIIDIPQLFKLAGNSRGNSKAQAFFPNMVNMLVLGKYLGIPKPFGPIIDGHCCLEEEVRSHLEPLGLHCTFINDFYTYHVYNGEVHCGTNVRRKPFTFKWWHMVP
hPAD4 enzyme, sequence (Q9UM07 whole entry): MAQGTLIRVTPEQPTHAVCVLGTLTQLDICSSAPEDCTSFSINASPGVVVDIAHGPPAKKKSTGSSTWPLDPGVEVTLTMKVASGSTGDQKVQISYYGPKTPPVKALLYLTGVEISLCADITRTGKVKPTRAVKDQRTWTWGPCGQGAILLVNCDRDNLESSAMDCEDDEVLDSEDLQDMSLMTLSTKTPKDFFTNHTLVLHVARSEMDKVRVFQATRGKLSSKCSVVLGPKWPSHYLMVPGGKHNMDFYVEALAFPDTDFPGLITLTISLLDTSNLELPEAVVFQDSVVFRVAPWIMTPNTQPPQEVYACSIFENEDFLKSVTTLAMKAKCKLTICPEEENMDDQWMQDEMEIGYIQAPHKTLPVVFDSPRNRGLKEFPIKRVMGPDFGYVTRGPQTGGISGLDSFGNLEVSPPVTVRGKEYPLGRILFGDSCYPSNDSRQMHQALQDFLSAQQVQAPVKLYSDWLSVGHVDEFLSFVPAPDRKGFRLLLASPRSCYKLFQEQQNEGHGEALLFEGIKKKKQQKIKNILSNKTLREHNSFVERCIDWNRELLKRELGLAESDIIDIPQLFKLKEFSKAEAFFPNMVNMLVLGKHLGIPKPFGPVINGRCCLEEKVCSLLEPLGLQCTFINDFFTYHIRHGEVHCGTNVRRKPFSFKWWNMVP

| IC50 (hPAD4 enzyme; [1]) [µM] | IC50 (hPAD4 enzyme; [2]) [µM] | IC50 (mPAD4; [3]) [µM] | IC50 (mPAD4; read-out: mPAD4 RFMS IC50) [µM] | Structure (SMILES) |
| --- | --- | --- | --- | --- |
| > 10 | 100 to 100000 |  |  | C=CC(=O)N(C)[C@@H]1C[C@@H]2CN(C(=O)c3cc(OC)c4c(c3)nc(-c3cc5cccnc5n3CC3CC3)n4C)[C@H]1[C@@H]2N (single isomer, unassigned) [Compound I-16] |
| > 10 | 10 to 100 | 10 to 100 | > 10 | CN(C)C/C=C/C(=O)N[C@@H]1C[C@H](N)CN(C(=O)c2ccc3c(c2)nc(-c2cc4cccnc4n2CC2CC2)n3C)C1 (racemic) [Compound I-10, Cis-rac-(2E)-N-[(3R,5S)-5-amino-1-{2-[1-(cyclopropylmethyl)-1H-pyrrolo[2,3-b]pyridin-2-yl]-1-methyl-1H-1,3-benzodiazole-5-carbonyl}piperidin-3-yl]-4-(dimethylamino)but-2-enamide] |
| > 10 | 10 to 100 |  |  | CN(C)C/C=C/C(=O)N[C@@H]1CCCN(C(=O)c2ccc3c(c2)nc(-c2cc4cccnc4n2CC2CC2)n3C)C1 [Compound I-12, (2E)-N-[(3R)-1-{2-[1-(cyclopropylmethyl)-1H-pyrrolo[2,3-b]pyridin-2-yl]-1-methyl-1H-1,3-benzodiazole-5-carbonyl}piperidin-3-yl]-4-(dimethylamino)but-2-enamide] |
| > 10 | 100 to 100000 | 10 to 100 | > 10 | CN(C)C/C=C/C(=O)N[C@H]1CCN(C(=O)c2ccc3c(c2)nc(-c2cc4cccnc4n2CC2CC2)n3C)C[C@H]1N (racemic) [Compound I-3, Cis-rac-(2E)-N-[(3R,4S)-3-amino-1-{2-[1-(cyclopropylmethyl)-1H-pyrrolo[2,3-b]pyridin-2-yl]-1-methyl-1H-1,3-benzodiazole-5-carbonyl}piperidin-4-yl]-4-(dimethylamino)but-2-enamide] |
| > 10 | 100 to 100000 |  |  | CN(C)C/C=C/C(=O)NCCN(CCc1cnc[nH]1)C(=O)c1ccc2c(c1)nc(-c1cc3cccnc3n1CC1CC1)n2C [Compound I-7, (2E)-N-[2-(1-{2-[1-(Cyclopropylmethyl)-1H-pyrrolo[2,3-b]pyridin-2-yl]-1-methyl-1H-1,3-benzodiazol-5-yl}-N-[2-(1H-imidazol-5-yl)ethyl]formamido)ethyl]-4-(dimethylamino)but-2-enamide] |
| > 10 | 100 to 100000 |  |  | C/C=C/C(=O)N[C@@H]1CNC[C@H]1NC(=O)c1ccc2c(c1)nc(-c1cc3cccnc3n1CC1CC1)n2C [Compound I-6] |
| > 10 | 100 to 100000 |  |  | C=CC(=O)N[C@@H]1CCCN(C(=O)c2ccc3c(c2)nc(-c2cc4cccnc4n2CC2CC2)n3C)C1 [Compound I-13, N-[(3R)-1-{2-[1-(cyclopropylmethyl)-1H-pyrrolo[2,3-b]pyridin-2-yl]-1-methyl-1H-1,3-benzodiazole-5-carbonyl}piperidin-3-yl]prop-2-enamide] |
| > 10 | 100 to 100000 |  |  | C=CC(=O)N(C)[C@H]1C[C@@H]2CN(C(=O)c3cc(OC)c4c(c3)nc(-c3cc5cccnc5n3CC3CC3)n4C)[C@H]1[C@@H]2N (single isomer, unassigned) [Compound I-17] |
| > 10 | 10 to 100 |  |  | C=CC(=O)O[C@@H]1CNC[C@@H]1NC(=O)c1ccc2c(c1)nc(-c1cc3cccnc3n1CC1CC1)n2C (racemic) [Compound I-11, Rac-(3R,4S)-4-{2-[1-(cyclopropylmethyl)-1H-pyrrolo[2,3-b]pyridin-2-yl]-1-methyl-1H-1,3-benzodiazole-5-amido}pyrrolidin-3-yl prop-2-enoate] |
